Among the data in US7141680B2, “Aromatic compounds possessing antifungal or antibacterial activity” (Genelabs Technologies, Inc., priority 2002, dated 2006) are MIC values, retold here.

One assay relates to bacteria. The experiment in a line: Minimum inhibitory concentration (MIC) assay, bacteria. Type of assay: cell-based. The method in brief: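 Broth microdilution adapted from NCCLS M7-A4; compounds from 10 mM DMSO stocks serially diluted 1:2 in growth medium suited to each bacterium. Inoculum adjusted to 0.5 McFarland in saline, final 1:200 dilution; MIC is lowest concentration preventing visible growth.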

Another assay deals with Aspergillus species. The assay can be described thus: Minimum inhibitory concentration (MIC) assay, filamentous fungi. Type of assay: cell-based. The settings on record: antifungal activity, lowest concentration at which 75% inhibition of growth is observed after 48 h. The essentials: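 Broth microdilution following NCCLS M38-P, in MOPS-buffered medium at pH 7.0, with seven 1:2 serial dilutions starting at a final 50 μM. Conidial inoculum came from 7-day potato dextrose agar slants, adjusted to OD 0.09–0.11 then diluted. MIC = lowest concentration giving 75% growth inhibition after 48 h at 35 °C.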

SMILES strings stand for the structures.

Regarding `N=C(N)CCCNC(=O)c1cc2ccc(NC(=O)c3cc4cc(C(=O)NCCNC(=N)N)ccc4[nH]3)cc2[nH]1` [Compound 181, 1H-Indole-2,5-dicarboxylic acid 2-{[2-(3-carbamimidoylpropylcarbamoyl)-1H-indol-6-yl]amide} 5-[(2-guanidinoethyl)amide]], the values for the MIC in the assay on bacteria and against Aspergillus species were at most 45.5 µM and at most 50 µM, respectively.

Broadly, the MIC is the least concentration at which growth counts as inhibited. Low readings indicate a more susceptible organism, high ones a less susceptible organism.
